Test results taken from patent publication US11623919B2, “Heterocyclic P2X7 antagonists” (AXXAM S.P.A., priority 2017, dated 2023).

Assays:
Test in all cases: Screen Quest Fluo-8 No Wash Calcium Assay (Bz-ATP evoked Ca2+ influx, FLIPR)
Assay type in all cases: cell-based
P2X7 receptor [1] = molecular target: T1, P2X7 receptor (Mus musculus, UniProt Q9Z1M0); details: mP2X7; HEK-293 cells stably transfected with P2X7 receptor, Bz-ATP at EC80, Fluo-8 NW; potency ranges A-D
T1 construct: mP2X7 (IC50; nM); other: mP2X7; HEK-293 cells stably transfected with P2X7 receptor, Bz-ATP at EC80, Fluo-8 NW; potency
T1 sequence (Q9Z1M0 1-595): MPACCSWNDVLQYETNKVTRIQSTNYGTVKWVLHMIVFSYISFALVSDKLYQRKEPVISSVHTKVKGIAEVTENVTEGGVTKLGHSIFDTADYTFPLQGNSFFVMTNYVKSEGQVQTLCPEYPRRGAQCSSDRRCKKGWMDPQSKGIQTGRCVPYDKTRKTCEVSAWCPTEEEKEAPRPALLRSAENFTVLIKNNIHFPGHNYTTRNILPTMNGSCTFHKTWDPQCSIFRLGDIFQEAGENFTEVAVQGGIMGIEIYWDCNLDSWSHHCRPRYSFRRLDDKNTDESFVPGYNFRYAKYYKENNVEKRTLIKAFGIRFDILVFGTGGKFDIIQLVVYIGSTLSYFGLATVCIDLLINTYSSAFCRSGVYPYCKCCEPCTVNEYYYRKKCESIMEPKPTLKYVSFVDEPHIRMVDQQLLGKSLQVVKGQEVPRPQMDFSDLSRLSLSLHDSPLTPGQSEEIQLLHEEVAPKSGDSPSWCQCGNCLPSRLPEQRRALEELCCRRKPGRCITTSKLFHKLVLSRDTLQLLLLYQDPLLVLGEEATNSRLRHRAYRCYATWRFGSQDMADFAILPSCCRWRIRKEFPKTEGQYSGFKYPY
Summary of the method: (§1)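 Compounds were added to Fluo-8-loaded P2X7-transfected HEK-293 cells 5 min before an EC80 Bz-ATP challenge, and Ca2+ influx was then recorded for 3 min. Buffer held 0.3 mM Ca2+ and no Mg2+. Inhibition was normalised to A438079, giving IC50 values.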

P2X7 receptor [2] = molecular target: T2, P2X7 receptor (Rattus norvegicus, UniProt Q64663); details: rP2X7; HEK-293 cells stably transfected with P2X7 receptor, Bz-ATP at EC80, Fluo-8 NW; potency ranges A-D
T2 construct: rP2X7 (IC50; nM); other: rP2X7; HEK-293 cells stably transfected with P2X7 receptor, Bz-ATP at EC80, Fluo-8 NW; potency
T2 sequence (Q64663 1-595): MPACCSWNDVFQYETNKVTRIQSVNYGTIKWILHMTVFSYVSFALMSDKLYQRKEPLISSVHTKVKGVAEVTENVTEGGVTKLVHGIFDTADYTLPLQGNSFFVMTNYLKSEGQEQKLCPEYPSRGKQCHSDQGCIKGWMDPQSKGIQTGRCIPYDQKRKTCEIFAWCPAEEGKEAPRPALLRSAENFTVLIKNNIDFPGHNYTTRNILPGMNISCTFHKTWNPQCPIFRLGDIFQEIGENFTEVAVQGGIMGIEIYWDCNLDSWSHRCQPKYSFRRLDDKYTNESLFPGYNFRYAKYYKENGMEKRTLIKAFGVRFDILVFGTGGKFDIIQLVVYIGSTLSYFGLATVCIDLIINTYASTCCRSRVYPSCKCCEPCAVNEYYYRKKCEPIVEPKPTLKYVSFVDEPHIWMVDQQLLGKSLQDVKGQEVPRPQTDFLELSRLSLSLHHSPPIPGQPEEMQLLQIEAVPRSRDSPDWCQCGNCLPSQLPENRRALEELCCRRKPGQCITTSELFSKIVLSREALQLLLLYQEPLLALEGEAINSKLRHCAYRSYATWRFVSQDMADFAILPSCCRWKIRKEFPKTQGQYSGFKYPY
Summary of the method: as §1

P2X7 receptor [3] = molecular target: T3, P2X7 receptor (Homo sapiens, UniProt Q99572); design: hP2X7 (IC50; nM); other: hP2X7; HEK-293 cells stably transfected with P2X7 receptor, Bz-ATP at EC80, Fluo-8 NW; potency; details: hP2X7; HEK-293 cells stably transfected with P2X7 receptor, Bz-ATP at EC80, Fluo-8 NW; potency ranges A-D
T3 sequence (Q99572 1-595): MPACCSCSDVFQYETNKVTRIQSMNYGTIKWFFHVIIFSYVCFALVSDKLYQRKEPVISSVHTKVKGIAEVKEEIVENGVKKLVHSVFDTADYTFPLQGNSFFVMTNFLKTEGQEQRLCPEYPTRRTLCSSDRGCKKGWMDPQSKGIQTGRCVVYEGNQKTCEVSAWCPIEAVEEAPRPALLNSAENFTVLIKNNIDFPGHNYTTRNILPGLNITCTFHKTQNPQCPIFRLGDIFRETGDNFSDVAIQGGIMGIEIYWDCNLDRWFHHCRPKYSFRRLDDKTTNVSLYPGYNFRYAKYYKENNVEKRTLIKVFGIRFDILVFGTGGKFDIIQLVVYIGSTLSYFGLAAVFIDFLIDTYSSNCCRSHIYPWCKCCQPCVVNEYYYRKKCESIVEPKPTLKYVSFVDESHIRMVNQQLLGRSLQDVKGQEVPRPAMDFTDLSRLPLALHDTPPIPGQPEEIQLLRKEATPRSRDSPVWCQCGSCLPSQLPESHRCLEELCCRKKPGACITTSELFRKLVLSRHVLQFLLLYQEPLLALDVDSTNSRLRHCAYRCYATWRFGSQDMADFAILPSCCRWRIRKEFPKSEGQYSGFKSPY
Summary of the method: as §1

Row | IC50 (P2X7 receptor [1]) [nM] | IC50 (P2X7 receptor [2]) [nM] | IC50 (P2X7 receptor [3]) [nM] | SMILES
1 | > 10000 | 1000 to 10000 | > 10000 | Cc1cc(Cn2c(CC3CCC(F)(F)CC3)noc2=O)no1 [Example 169, 3-[(4,4-difluorocyclohexyl)methyl]-4-[(5-methyl-1,2-oxazol-3-yl)methyl]-4,5-dihydro-1,2,4-oxadiazol-5-one]
2 | 200 to 1000 | < 200 | < 200 | O=c1onc(CC2CCC(F)(F)CC2)n1Cc1ccccc1Cl [Example 170, 4-[(2-chlorophenyl)methyl]-3-[(4,4-difluorocyclohexyl)methyl]-4,5-dihydro-1,2,4-oxadiazol-5-one]
3 | 1000 to 10000 | 200 to 1000 | 1000 to 10000 | Cc1cc(F)ccc1Cn1c(CC2CCC(F)(F)CC2)noc1=O [Example 171, 3-[(4,4-difluorocyclohexyl)methyl]-4-[(4-fluoro-2-methylphenyl)methyl]-4,5-dihydro-1,2,4-oxadiazol-5-one]
4 | > 10000 | 1000 to 10000 | > 10000 | O=c1onc(CC2CCC(F)(F)CC2)n1CCc1ccccc1 [Example 172, 3-[(4,4-difluorocyclohexyl)methyl]-4-(2-phenylethyl)-4,5-dihydro-1,2,4-oxadiazol-5-one]
5 | 200 to 1000 | < 200 | < 200 | O=c1onc(Cc2c(F)cccc2Cl)n1CC1CC2C(C1)C2(F)F (stereo not drawn) [Example 173, 3-[(2-chloro-6-fluorophenyl)methyl]-4-({6,6-difluorobicyclo[3.1.0]-hexan-3-yl}methyl)-4,5-dihydro-1,2,4-oxadiazol-5-one]
6 | > 10000 | > 10000 | > 10000 | Cn1c(Cc2c(F)cccc2Cl)noc1=O [Example 174, 3-[(2-chloro-6-fluorophenyl)methyl]-4-methyl-4,5-dihydro-1,2,4-oxadiazol-5-one]
7 | > 10000 | > 10000 | > 10000 | CCn1c(Cc2c(F)cccc2Cl)noc1=O [Example 175, 3-[(2-chloro-6-fluorophenyl)methyl]-4-ethyl-4,5-dihydro-1,2,4-oxadiazol-5-one]
8 | > 10000 | > 10000 | > 10000 | CCCn1c(Cc2c(F)cccc2Cl)noc1=O [Example 176, 3-[(2-chloro-6-fluorophenyl)methyl]-4-propyl-4,5-dihydro-1,2,4-oxadiazol-5-one]
9 | > 10000 | 1000 to 10000 | 1000 to 10000 | CCCCn1c(Cc2c(F)cccc2Cl)noc1=O [Example 177, 4-butyl-3-[(2-chloro-6-fluorophenyl)methyl]-4,5-dihydro-1,2,4-oxadiazol-5-one]
10 | > 10000 | > 10000 | 1000 to 10000 | CC(C)Cn1c(Cc2c(F)cccc2Cl)noc1=O [Example 178, 3-[(2-chloro-6-fluorophenyl)methyl]-4-(2-methylpropyl)-4,5-dihydro-1,2,4-oxadiazol-5-one]
11 | 1000 to 10000 | > 10000 | 1000 to 10000 | O=c1onc(Cc2c(F)cccc2Cl)n1CCCC1CCCCC1 [Example 179, 3-[(2-chloro-6-fluorophenyl)methyl]-4-(3-cyclohexylpropyl)-4,5-dihydro-1,2,4-oxadiazol-5-one]
12 | > 10000 | > 10000 | > 10000 | O=c1onc(Cc2c(F)cccc2Cl)n1CCCN1CCCCC1 [Example 180, 3-[(2-chloro-6-fluorophenyl)methyl]-4-[3-(piperidin-1-yl)propyl]-4,5-dihydro-1,2,4-oxadiazol-5-one]
13 | 1000 to 10000 | 1000 to 10000 | 200 to 1000 | O=c1onc(Cc2c(F)cccc2Cl)n1CCN1CCC(F)(F)CC1 [Example 181, 3-[(2-chloro-6-fluorophenyl)methyl]-4-[2-(4,4-difluoropiperidin-1-yl)ethyl]-4,5-dihydro-1,2,4-oxadiazol-5-one]
14 | > 10000 | > 10000 | 1000 to 10000 | O=c1onc(Cc2c(F)cccc2Cl)n1CCCN1CCC(F)(F)CC1 [Example 182, 3-[(2-chloro-6-fluorophenyl)methyl]-4-[3-(4,4-difluoropiperidin-1-yl)propyl]-4,5-dihydro-1,2,4-oxadiazol-5-one]
15 | 1000 to 10000 | 200 to 1000 | 200 to 1000 | O=c1onc(Cc2c(F)cccc2Cl)n1CC1CC=CC1 [Example 183, 3-[(2-chloro-6-fluorophenyl)methyl]-4-(cyclopent-3-en-1-ylmethyl)-4,5-dihydro-1,2,4-oxadiazol-5-one]
16 | < 200 | < 200 | < 200 | O=c1onc(Cc2c(F)cccc2Cl)n1CC1CCC(C(F)(F)F)CC1 (stereo not drawn) [Example 184, 3-[(2-chloro-6-fluorophenyl)methyl]-4-{[4-(trifluoromethyl)cyclohexyl]methyl}-1,2,4-oxadiazol-5(4H)-one]
17 | < 200 | < 200 | < 200 | O=c1onc(Cc2c(F)cccc2Cl)n1CC1CCC(F)CC1 (stereo not drawn) [Example 185, 3-[(2-chloro-6-fluorophenyl)methyl]-4-[(4-fluorocyclohexyl)methyl]-4,5-dihydro-1,2,4-oxadiazol-5-one]
18 | 1000 to 10000 | 1000 to 10000 | 1000 to 10000 | CC(c1ccccc1)n1c(CC2CCC(F)(F)CC2)noc1=O (stereo not drawn) [Example 188, 3-[(4,4-difluorocyclohexyl)methyl]-4-(1-phenylethyl)-4,5-dihydro-1,2,4-oxadiazol-5-one]
19 | > 10000 | > 10000 | > 10000 | O=c1onc(CC2CCC(F)(F)CC2)n1Cc1ccc(C(F)(F)F)nc1 [Example 189, 3-[(4,4-difluorocyclohexyl)methyl]-4-{[6-(trifluoromethyl)pyridin-3-yl]methyl}-4,5-dihydro-1,2,4-oxadiazol-5-one]
20 | > 10000 | > 10000 | > 10000 | O=c1onc(CC2CCC(F)(F)CC2)n1Cc1ncc(F)cn1 [Example 190, 3-[(4,4-difluorocyclohexyl)methyl]-4-[(5-fluoropyrimidin-2-yl)methyl]-4,5-dihydro-1,2,4-oxadiazol-5-one]
21 | > 10000 | 200 to 1000 | 1000 to 10000 | O=c1onc(CC2CCC(F)(F)CC2)n1Cc1nccs1 [Example 191, 3-[(4,4-difluorocyclohexyl)methyl]-4-(1,3-thiazol-2-ylmethyl)-4,5-dihydro-1,2,4-oxadiazol-5-one]
